Assay [1] relates to T-Rex 293 cell line SC3 cells having increased expression of androgen receptor protein due to exposure to doxycycline. The assay is described as follows: Cellular growth inhibition, T-Rex 293 SC3 cells with doxycycline (androgen receptor induced), CellTiter-Glo. In kind it is cell-based. The settings on record: 72 h, T-Rex 293 SC3 cells with 10 ng/mL doxycycline (increased androgen receptor expression). In outline:
(§1)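 With DMSO (0.5%) vehicle as negative control, compounds treated SC3 cells for 72 h in medium containing charcoal-dextran FBS ± doxycycline. This T-Rex 293 clone expresses transfected wild-type AR on induction. Readout: CellTiter-Glo 2.0; GI50 by nonlinear regression.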
(Cellular ATP, detected with luciferase, serves as a proxy for viable cell number.)

Assay [2] has as its system T-Rex 293 cell line SC3 cells lacking increased expression of androgen receptor protein. The assay can be described thus: Cellular growth inhibition, T-Rex 293 SC3 cells without doxycycline, CellTiter-Glo. In kind it is cell-based. The note with it: 72 h, T-Rex 293 SC3 cells not exposed to doxycycline, CellTiter-Glo 2.0. The method, boiled down:
as §1

Assay [3] relates to VCaP cells. The assay can be described thus: Cellular growth inhibition assay for VCaP cells, CellTiter-Glo. It is filed as cell-based, human. The settings on record: Homo sapiens, VCaP, 72 h, 72 hours treatment, CellTiter-Glo 2.0. In outline:
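GI50 values come from four-parameter curve fits of luminescence data normalized to a zero baseline. Compound, in medium with 0.5% DMSO, was added one day after plating and left for 72 h before CellTiter-Glo 2.0 addition.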

For 9 compounds, GI50 results are on record in patent US20260062422A1 (Halda Therapeutics OpCo, Inc., priority 2022, published 2026).

By GI50 is commonly meant the concentration at which growth is held to half of that of the control. Lower therefore signals more potent growth inhibition. As to `Cc1sc2c(c1C)C(c1ccc(Cl)cc1)=N[C@@H](CC(=O)NCCCN1CCN(CC3CCN(c4ncc(C(=O)N[C@H]5C(C)(C)[C@H](Oc6ccc(C#N)c(Cl)c6)C5(C)C)cn4)CC3)CC1)c1nnc(C)n1-2` [Compound I-36, N-((1r,3r)-3-(3-chloro-4-cyanophenoxy)-2,2,4,4-tetramethylcyclobutyl)-2-(4-((4-(3-(2-((S)-4-(4-chlorophenyl)-2,3,9-trimethyl-6H-thieno[3,2-f][1,2,4]triazolo[4,3-a][1,4]diazepin-6-yl)acetamido)propyl)piperazin-1-yl)methyl)piperidin-1-yl)pyrimidine-5-carboxamide], the GI50 in assay [1], in assay [2] and in assay [3] was 500 to 1500 nM in each case.
`CCNC(=O)C[C@@H]1N=C(c2ccc(N3CCN(CC4CCN(c5ncc(C(=O)N[C@H]6C(C)(C)[C@H](Oc7ccc(C#N)c(Cl)c7)C6(C)C)cn5)CC4)CC3)cc2)c2c(sc(C)c2C)-n2c(C)nnc21` [Compound I-105, N-[3-(3-chloro-4-cyano-phenoxy)-2,2,4,4-tetramethyl-cyclobutyl]-2-[4-[[4-[4-[(9S)-9-[2-(ethylamino)-2-oxo-ethyl]-4,5,13-trimethyl-3-thia-1,8,11,12-tetrazatricyclo[8.3.0.02,6]trideca-2(6),4,7,10,12-pentaen-7-yl]phenyl]piperazin-1-yl]methyl]-1-piperidyl]pyrimidine-5-carboxamide]: the GI50 in assay [1], in assay [2] and in assay [3] was under 500 nM throughout.
With `CCNC(=O)C[C@@H]1N=C(c2ccc(N3CCC(N(C)C4CCN(c5ncc(C(=O)N[C@H]6C(C)(C)[C@H](Oc7ccc(C#N)c(Cl)c7)C6(C)C)cn5)CC4)CC3)cc2)c2c(sc(C)c2C)-n2c(C)nnc21` [Compound I-113], the concentration for 50% growth inhibition (GI50) is under 500 nM in assay [1], 1500 to 3000 nM in assay [2] and under 500 nM in assay [3].
`Cc1sc2c(c1C)C(c1ccc(Cl)cc1)=N[C@H](CC(=O)NCCOCCOCCOCCOC1CCN(c3ncc(C(=O)N[C@H]4C(C)(C)[C@H](Oc5ccc(C#N)c(Cl)c5)C4(C)C)cn3)CC1)c1nnc(C)n1-2` [Compound I-13]: the concentration for 50% growth inhibition (GI50) in assay [1], in assay [2] and in assay [3] was over 3000 nM in each case.
`Cc1sc2c(c1C)C(c1ccc(N3CC(CC4CCN(c5ncc(C(=O)N[C@H]6C(C)(C)[C@H](Oc7ccc(C#N)c(Cl)c7)C6(C)C)cn5)CC4)C3)cc1)=N[C@@H](C)c1nnc(C)n1-2` [Compound I-270]: the 50% growth inhibitory concentration (GI50) in assay [1] was under 500 nM; in assay [2] it was over 3000 nM; in assay [3] it was 1500 to 3000 nM.
Take `Cc1sc2c(c1C)C(c1ccc(Cl)cc1)=N[C@@H](CC(=O)NCCCN1CCN(CCCOC3CCN(c4ncc(C(=O)N[C@H]5C(C)(C)[C@H](Oc6ccc(C#N)c(Cl)c6)C5(C)C)cn4)CC3)CC1)c1nnc(C)n1-2` [Compound I-10]: the GI50 is under 500 nM in assay [1], 1500 to 3000 nM in assay [2] and under 500 nM in assay [3].
Take `Cc1sc2c(c1C)C(c1ccc(C#CC3CC4(CCN(c5ncc(C(=O)N[C@H]6C(C)(C)[C@H](Oc7ccc(C#N)c(Cl)c7)C6(C)C)cn5)CC4)C3)cc1)=N[C@@H](Cc1ncco1)c1nnc(C)n1-2` [Compound I-267]: the GI50 in assay [1], in assay [2] and in assay [3] was under 500 nM throughout.
`Cc1sc2c(c1C)C(c1ccc(OCCOC3CCN(c4ncc(C(=O)N[C@H]5C(C)(C)[C@H](Oc6ccc(C#N)c(Cl)c6)C5(C)C)cn4)CC3)cc1)=N[C@@H](CC(=O)O)c1nnc(C)n1-2` [Compound I-38]: the GI50 in assay [1] is 500 to 1500 nM; in assay [2] it was over 3000 nM; in assay [3], over 3000 nM.
With `CCNC(=O)C[C@@H]1N=C(c2ccc(OC3CCN(c4ncc(C(=O)N[C@H]5C(C)(C)[C@H](Oc6ccc(C#N)c(Cl)c6)C5(C)C)cn4)CC3)cc2)c2c(sc(C)c2C)-n2c(C)nnc21` [Compound I-61], the GI50 is under 500 nM in assay [1], 1500 to 3000 nM in assay [2] and 500 to 1500 nM in assay [3].
